From ChEMBL document CHEMBL5724558, “Image-based profiling of drug vulnerabilities in CRC organoids” (2024)
Several values for one entry are separate records, joined by “and”; a condition that tells them apart may be missing. Identical values can stand only once.

Legend:
Format in all cases: functional, Homo sapiens
Set-up in all cases: dose or concentration left out as unconfirmed
Colon cancer organoid [1] = experiment: Image-based profiling of donated chemical probes and chemogenomic kinase set in O06 CRC organoid. Image analysis is performed on the sum area metric, and the data were normalized to the DMSO control. After imaging the organoid viability is measured using the OneGloEX Luciferase Assay System. The normalized viability data and sum area are reported.
Colon cancer organoid [2] = experiment: Image-based profiling of donated chemical probes and chemogenomic kinase set in O09 CRC organoid. Image analysis is performed on the sum area metric, and the data were normalized to the DMSO control. After imaging the organoid viability is measured using the OneGloEX Luciferase Assay System. The normalized viability data and sum area are reported.
Colon cancer organoid [3] = experiment: Image-based profiling of donated chemical probes and chemogenomic kinase set in O21 CRC organoid. Image analysis is performed on the sum area metric, and the data were normalized to the DMSO control. After imaging the organoid viability is measured using the OneGloEX Luciferase Assay System. The normalized viability data and sum area are reported.

Row | Structure (SMILES) | Cell Viability (Colon cancer organoid [1]; Replication number 1) | Cell Viability (Colon cancer organoid [1]; Replication number 2) | Cell Viability (Colon cancer organoid [2]; Replication number 1) | Cell Viability (Colon cancer organoid [2]; Replication number 2) | Cell Viability (Colon cancer organoid [3]; Replication number 1) | Cell Viability (Colon cancer organoid [3]; Replication number 2)
1 | COc1cc(N(C)c2ccnc3ccc(C(F)(F)F)cc23)cc(OC)c1OC | 100.25% and 97.181% | 103.599% and 93.0279% | 149.162% and 94.0382% | 152.627% and 99.9775% | 98.7422% and 93.5085% | 96.4741% and 84.441%
2 | Cl.O=C(O)c1cc(-c2ccc(C3CCNCC3)cc2)c2ccc(-c3ccc(C(F)(F)F)cc3)cc2c1 | 91.1935% and 100.081% | 81.9268% and 87.9385% | 82.2902% and 109.541% | 53.2933% and 84.4568% | 122.525% and 121.681% | 120.065% and 115.738%
3 | CCC(=O)N1CCOc2c(cc(-c3ccc(OC)c(OC)c3)cc2OCC2CCCN(C)C2)C1 (stereo unspecified) | 144.88% and 142.792% | 105.633% and 74.0839% | 89.2152% and 99.2272% | 160.901% and 114.888% | 115.467% and 112.867% | 97.0638% and 103.64%
4 | CCC(=O)Nc1cccc(Oc2nc(Nc3ccc(N4CCN(C)CC4)cc3OC)ncc2Cl)c1 | 127.075% and 113.507% | 91.2646% and 89.6658% | 45.1468% and 48.3715% | 57.9255% and 59.3892% | 76.6045% and 88.0836% | 80.6193% and 93.271%
5 | CCOc1cc(N2CCC(O)CC2)ccc1Nc1ncc2c(n1)N(C1CCCC1)CCC(=O)N2C | 54.2917% and 71.4425% | 45.2272% and 91.5167% | 71.8666% and 49.1195% | 54.8924% and 49.401% | 101.764% and 118.746% | 133.409% and 125.513%
6 | CC(C)S(=O)(=O)c1ccc2nccc(Nc3ccc4scnc4c3)c2c1 | 90.1117% and 127.973% | 127.825% and 117.429% | 127.216% and 102.228% | 64.4509% and 80.9853% | 106.102% and 111.498% | 112.549% and 132.422%
7 | Cl.O=C([C@@H](Cc1cccc(C(F)(F)F)c1)NS(=O)(=O)c1cc(F)c2c(c1)CCNC2)N1CCCC1 | 106.357% and 105.584% | 187.159% and 130.005% | 80.2483% and 102.241% | 101.188% and 101.204% | 76.7615% and 83.4749% | 81.6272% and 85.3819%
8 | C[C@]1(O)C[C@@H](c2nc(-c3ccc4ccc(-c5ccccc5)nc4c3)c3c(N)nccn32)C1 [LINSITINIB] | 20.2503% and 50.5216% | 16.9529% and 40.5141% | 48.5771% and 41.3901% | 29.8323% and 45.6217% | 65.7988% and 93.6585% | 45.8203% and 78.3015%
9 | CN(C)C(=O)c1ccc(-c2cc(C(=O)N[C@@H]3CCc4ccccc43)no2)cc1O | 75.5057% and 77.557% | 96.6364% and 86.0329% | 44.4352% and 76.507% | 55.2789% and 66.994% | 107.545% and 128.739% | 101.745% and 90.2148%
10 | CN(C(=O)c1cnn2cccnc12)c1cc2c(cc1N1CCOCC1)C(=O)N(C[C@@H](F)C(C)(C)O)C2 | 66.1312% and 81.8624% | 88.8257% and 96.1076% | 67.6561% and 89.4711% | 97.2316% and 93.7748% | 91.4071% and 91.6697% | 87.4763% and 99.932%
11 | CC(=O)c1cc(-c2cc(C(=O)NC3CC3)ccc2C)c2ncccn12 | 115.093% and 116.94% | 131.559% and 119.251% | 163.828% and 97.8362% | 113.773% and 107.19% | 100.074% and 118.158% | 94.4985% and 97.1957%
12 | CN(C)C(=O)Cn1cc(-c2ccc(-c3nnc4ccccn34)cc2)cn1 | 116.057% and 113.952% | 85.0591% and 113.728% | 166.343% and 115.942% | 81.4375% and 98.5321% | 108.728% and 107.596% | 93.8353% and 96.1497%
13 | O=C(CNCc1cc2ccccc2[nH]1)N[C@H]1CC[C@@H](c2nc3ccccc3[nH]2)CC1 | 105.609% and 101.043% | 76.5637% and 75.4756% | 116.461% and 89.5122% | 85.4342% and 106.091% | 73.7634% and 95.331% | 89.7869% and 102.483%
14 | Cc1cc2c(-c3ccco3)cnc(N[C@@H]3CCN(C)C[C@H]3C(=O)NC3CCCCC3)c2[nH]c1=O [GSK789] | 45.8732% and 77.9757% | 46.7874% and 82.8928% | 34.6914% and 67.3378% | 49.9263% and 76.5266% | 106.004% and 111.859% | 101.857% and 104.521%
15 | CN(C)c1ncnc(-c2ccc3nc(Nc4cc(CN5CCN(C(=O)CC(F)(F)F)CC5)ccn4)[nH]c3c2)c1Cl [BAY-440] | 91.3612% and 98.3607% | 93.5115% and 120.107% | 134.702% and 130.21% | 215.997% and 118.583% | 107.586% and 105.951% | 93.8566% and 87.7551%
16 | N#CN1CC[C@H](C(=O)Nc2nc3c(s2)CN(C(=O)CN=[N+]=[N-])CC3)C1 [8RK64] | 79.1245% and 96.1943% | 91.4374% and 108.602% | 73.5983% and 85.3445% | 74.3628% and 83.6638% | 96.0935% and 89.4871% | 85.4285% and 89.7349%
17 | CCOC(=O)Nc1cc(-c2ccc(C)c(NS(C)(=O)=O)c2)nn2c(C)nnc12 | 97.2241% and 83.1141% | 52.6014% and 56.6383% | 56.4078% and 39.4127% | 74.2439% and 53.3101% | 101.464% and 109.34% | 124.525% and 131.026%
18 | Cn1cncc1[C@@](O)(COc1ccc(C#N)cc1-c1ccc(OC(F)(F)F)cc1)c1ccc(C#N)cc1 [A-108] | 98.5597% and 105.855% | 74.5028% and 111.105% | 62.58% and 86.4879% | 152.883% and 128.222% | 75.0431% and 83.2471% | 104.838% and 112.755%
19 | O=C(NNS(=O)(=O)c1ccccc1)c1cc(-c2ccnnc2)ccc1F [WM-2474] | 103.665% and 117.571% | 96.3756% and 98.5103% | 112.004% and 108.416% | 87.165% and 94.3695% | 113.818% and 97.6719% | 86.2106% and 79.5377%
20 | CCN(Cc1ccc(Cl)cc1)c1ncc(C(=O)NCCCN2CCCC2=O)c(NC2CCCC2)n1 | 89.2777% and 109.917% | 114.236% and 99.6728% | 161.079% and 96.7604% | 165.307% and 110.619% | 106.065% and 92.3751% | 124.526% and 113.344%
21 | Cn1cnc2c(F)c(Nc3ccc(Br)cc3Cl)c(C(=O)NOCCO)cc21 [SELUMETINIB] | 17.7792% and 31.8399% | 27.9489% and 57.8656% | 59.0124% and 83.6445% | 134.387% and 96.018% | 30.9074% and 27.5425% | 36.6071% and 40.747%
